Measurements taken from patent US20240024317A1, “CANCER TREATMENT USING BOSENTAN IN COMBINATION WITH A CHECKPOINT INHIBITOR” (Materia Therapeutics Inc., priority 2020, published 2024).

Tests used:
[1] = test system: E0771 tumors; test: Extracellular matrix staining (Picro Sirius red collagen, HABP immunofluorescence); assay type: in vivo, mice
Method: Mice bearing syngeneic, orthotopic triple negative breast cancer (TNBC) were treated with a range of sub-therapeutic doses of bosentan, from 0.2 mg/kg to 10 mg/kg of body weight. Orthotopic models for murine mammary tumors were generated by implantation of 5×10^4 4T1 or E0771 cancer cells in 40 μl of serum-free medium into the third mammary fat pad of 6-8-week-old BALB/c and C57BL/6 female mice, respectively. 4T1 (ATCC® CRL-2539TH) and E0771 (94A001, CH3 BioSystems) mouse breast adenocarcinoma cell lines were purchased form ATCC and CH3 BioSystems, respectively. The cells were maintained at 37° C./5% CO2 in Roswell Park Memorial Institute medium (RPMI-1640, LM-R1637, Biosera) supplemented with 10% fetal bovine serum (FBS, FB-1001H, biosera) and 1% antibiotics (A5955, Sigma). Bosentan (bosentan Hydrate (S3051, Selleckchem) was dissolved in ddH2O containing 2% DMSO (GK2245, Glentham Life Science), 30% PEG300 (S6704, Selleckchem) and 2% Tween 80 (S6702, Selleckchem)) 1 mg/kg, 5 mg/kg, 10 mg/kg or equal volume of diluent (control group) was administered by intraperitoneal injection (i.p.) once a day for 10 days, starting from once the tumor volumes reached an average size of 100 mm^3. Tumors were excised when they reached an average size of 500 mm^3. Tissue stiffness was then measured non-invasively and longitudinally using ultrasound elastography. […]

[2] = test system: 4T1 tumors; test: Tumor volume over time, bosentan pre-treatment plus anti-PD-1/anti-CTLA-4 (Example 5); assay type: in vivo, mice; conditions: pre-treated with bosentan 1 mg/kg, then immunotherapy cocktail
Method: Syngeneic tumor models and treatment protocols. Orthotopic models for murine mammary tumors were generated by implantation of 5×10^4 4T1 cancer cells in 40 μL of serum-free medium into the third mammary fat pad of 6-8 weeks-old BALB/c mice. Mice were purchased from the Cyprus Institute of Neurology and Genetics and all in vivo experiments were conducted in accordance with the animal welfare regulations and guidelines of the Republic of Cyprus and the European Union (European Directive 2010/63/EE and Cyprus Legislation for the protection and welfare of animals, Laws 1994-2013) under a license acquired and approved (No CY/EXP/PR.L2/2018, CY/EXP/PR.L14/2019, CY/EXP/PR.L15/2019, CY/EXP/PR.L03/2020) by the Cyprus Veterinary Services committee, the Cyprus national authority for monitoring animal research for all academic institutions.
Tranilast at 200 mg/kg, bosentan at 1 mg/kg, or equal volume of diluent (control group) was administered by intraperitoneal injection (i.p.) once a day for 14 days, starting from once the tumor volumes reached an average size of 5 mm diameter. […]
Planar dimensions (x, y) of tumor were monitored every 2-3 days using a digital caliper and tumor volume was estimated from the volume of an ellipsoid and assuming that the third dimension, z, is equal to the sqrt(x y). […]

COc1ccccc1Oc1c(NS(=O)(=O)c2ccc(C(C)(C)C)cc2)nc(-c2ncccn2)nc1OCCO [bosentan, 4-tert-butyl-N-[6-(2-hydroxy-ethoxy)-5-(2-methoxy-phenoxy)-2-(pyrimidin-2-yl)pyrimidin-4-yl] benzenesulfonamide]
collagen levels (Picro Sirius red staining) [1]: reduction of collagen levels
tumor volume as a function of time [2]: effectively stop further tumor growth
